In a flash point compilation (Sun et al. 2020) one finds flash point data, which are given here for 110 molecules.

As for `C=CCOC(=O)CC` [allylpropanoate], the flash point is 25 °C.
Regarding `C=CCOCCC` [allylpropylether], the flash point is -5 °C.
The value for `OCc1ccccc1` [benzylalcohol] was 93 °C.
The value for `CCCC(=O)OCc1ccccc1` [benzylbutanoate] was 107 °C; that for `N#CCc1ccccc1` [benzylcyanide] was 101 °C.
The value for `CCOCc1ccccc1` [benzylethylether] was 59 °C.
With `ICc1ccccc1` [benzyliodide], the flash point was determined as 97 °C.
The value for `SCc1ccccc1` [benzylmercaptan] was 70 °C; that for `C1CCC(C2CCCCC2)CC1` [bicyclohexyl] was 92 °C; that for `BrC1CCCC1` [bromocyclopentane] was 35 °C.
The value for `CCCC(=O)OC(=O)CCC` [butanoicanhydride] was 82 °C; that for `C=CC(=O)OCCCC` [butylacrylate] was 37 °C.
The value for `CCCCN` [butylamine] was -7 °C; that for `CCCCc1ccccc1` [butylbenzene] was 50 °C.
The molecule `CCCCOC(=O)c1ccccc1` [butylbenzoate] showed a flash point of 107 °C.
Then `CCCCOC(=O)CCC` [butylbutanoate], with 49 °C; and `CCCCC1CCCCC1` [butylcyclohexane], with 48 °C.
With `CCCCOCC` [butylethylether], the flash point was -5 °C.
Then `C=C(C)C(=O)OCCCC` [butylmethacrylate], with 49 °C; and `CSCCl` [chloromethylmethylsulfide], with 17 °C; and `C[C@@H]1CCCC[C@@H]1C` [cis-1,2-dimethylcyclohexane], with 12 °C.
Regarding `C[C@@H]1CCC[C@@H]1C` [cis-1,2-dimethylcyclopentane], the flash point was -4 °C.
Then `C[C@@H]1CCC[C@H](C)C1` [cis-1,3-dimethylcyclohexane], with 6 °C; and `C/C=C\CC` [cis-2-pentene], with -46 °C; and `CC/C=C\CC` [cis-3-hexene], with -25 °C.
With `CC/C=C\CCCC` [cis-3-octene], the flash point was 14 °C.
Then `C/C=C\C(C)C` [cis-4-methyl-2-pentene], with -33 °C; and `CC(C)c1ccccc1` [cumene], with 31 °C; and `O=C1CCC1` [cyclobutanone], with 10 °C.
Then `OC1CCCCCC1` [cycloheptanol], with 71 °C.
Then `SC1CCCCC1` [cyclohexanethiol], with 41 °C; and `C=CC(=O)OC1CCCCC1` [cyclohexylacrylate], with 68 °C.
Molecule `c1ccc(C2CCCCC2)cc1` [cyclohexylbenzene] showed a flash point of 98 °C.
The value for `COC1CCCCC1` [cyclohexylmethylether] was 21 °C.
Molecule `C1CCCCCCC1` [cyclooctane] gave a flash point of 28 °C.
In turn, `OC1CCCCCCC1` [cyclooctanol] gave a flash point of 88 °C.
`C1CCCC1` [cyclopentane] displayed a flash point of -37 °C.
The value for `O=CC1CCCC1` [cyclopentanecarboxaldehyde] was 28 °C; that for `SC1CCCC1` [cyclopentanethiol] was 25 °C; that for `O=C1CCCC1` [cyclopentanone] was 26 °C.
Then `NC1CCCC1` [cyclopentylamine], with 12 °C.
Then `OCC1CCCC1` [cyclopentylmethanol], with 62 °C; and `N#CC1CC1` [cyclopropanecarbonitrile], with 32 °C; and `CC(=O)C1CC1` [cyclopropylmethylketone], with 13 °C.
The molecule `CCCCCCCCCCOC=O` [decylformate] returned a flash point of 100 °C.
The value for `CCC(C)NC(C)CC` (stereo not given) [di-sec-butylamine] was 24 °C.
Molecule `CCC(C)OC(C)CC` (stereo not given) [di-sec-butylether] registered a flash point of 15 °C.
The molecule `CC(C)(C)SSC(C)(C)C` [di-tert-butyldisulfide] returned a flash point of 67 °C.
For the molecule `C=CCSCC=C` [diallylsulfide], the flash point was 23 °C.
The molecule `CCCCNCCCC` [dibutylamine] gave a flash point of 47 °C.
The value for `CCCCSSCCCC` [dibutyldisulfide] was 93 °C; that for `CCCCSCCCC` [dibutylsulfide] was 60 °C; that for `CCNCC` [diethylamine] was -23 °C.
Then `OCCOCCO` [diethyleneglycol], with 124 °C; and `CCOC(=O)c1ccccc1C(=O)OCC` [diethylphthalate], with 160 °C; and `CC(C)CCOCCC(C)C` [diisopentylether], with 46 °C.
The value for `CC(C)NC(C)C` [diisopropylamine] was -7 °C; that for `COC(=O)OC` [dimethylcarbonate] was 14 °C; that for `CSSC` [dimethyldisulfide] was 10 °C.
With `COC(=O)c1ccccc1C(=O)OC` [dimethylphthalate], the flash point turned out to be 150 °C.
The value for `CSC` [dimethylsulfide] was -36 °C.
The value for `c1ccc(Oc2ccccc2)cc1` [diphenylether] was 115 °C; that for `CCCSSCCC` [dipropyldisulfide] was 66 °C.
Then `CCCCCCCCCCCCOC(C)=O` [dodecylacetate], with 120 °C.
`CCOC(C)=O` [ethylacetate] came in with a flash point of -4 °C.
Then `C=CC(=O)OCC` [ethylacrylate], with 8 °C; and `CCC1CCCCC1` [ethylcyclohexane], with 18 °C.
The molecule `CCC1CCCC1` [ethylcyclopentane] gave a flash point of -4 °C.
The value for `CCOC(=O)CC` [ethylpropanoate] was 12 °C; that for `CCCSSCC` [ethylpropyldisulfide] was 57 °C; that for `c1ccoc1` [furan] was -36 °C.
The value for `CCC(=O)OCc1ccco1` [furfurylpropanoate] was 82 °C; that for `CCCCCCC=O` [heptanal] was 40 °C.
In turn, `CCCCCCC#N` [heptanenitrile] came in with a flash point of 58 °C.
With `CCCCCCC(=O)OC(=O)CCCCCC` [heptanoicanhydride], the flash point was 130 °C.
`CCCCCCCc1ccccc1` [heptylbenzene] displayed a flash point of 95 °C.
On to `CCCCCC=O` [hexanal], for which the flash point is 25 °C.
Then `CCCCCC#N` [hexanenitrile], with 47 °C; and `CCCCCCOC(C)=O` [hexylacetate], with 55 °C.
As for `CCCCCCOC=O` [hexylformate], the flash point is 44 °C.
Then `Ic1ccccc1` [iodobenzene], with 74 °C; and `IC1CCCC1` [iodocyclopentane], with 52 °C.
Then `CCI` [iodoethane], with -5 °C; and `CC(C)COC(=O)C(C)C` [isobutyl2-methylpropanoate], with 38 °C; and `CC(=O)OCC(C)C` [isobutylacetate], with 18 °C.
The value for `CCCC(=O)OCC(C)C` [isobutylbutanoate] was 46 °C; that for `C=C(C)C(=O)OCC(C)C` [isobutylmethacrylate] was 41 °C.
In turn, `COCC(C)C` [isobutylmethylether] gave a flash point of -29 °C.
Then `C=COCC(C)C` [isobutylvinylether], with -9 °C.
Then `CC(=O)OCCC(C)C` [isopentylacetate], with 36 °C.
As for `CC(C)CCc1ccccc1` [isopentylbenzene], the flash point is 62 °C.
`CCCC(=O)OCCC(C)C` [isopentylbutanoate]: the flash point came to 59 °C.
In turn, `CC(C)CCOC=O` [isopentylformate] showed a flash point of 22 °C.
Then `C=CC(=C)C` [isoprene], with -48 °C; and `CC(C)N` [isopropylamine], with -32 °C; and `CCCC(=O)OC(C)C` [isopropylbutanoate], with 24 °C.
Then `CC(C)C1CCCCC1` [isopropylcyclohexane], with 35 °C; and `CC(C)C1CCCC1` [isopropylcyclopentane], with 14 °C; and `CC(C)OC=O` [isopropylformate], with -14 °C.
Then `Cc1cccc(O)c1` [m-cresol], with 86 °C; and `CCCc1cccc(C)c1` [m-propyltoluene], with 52 °C.
`Cc1cccc(C)c1` [m-xylene] registered a flash point of 25 °C.
Then `COC(=O)C(C)C` [methyl2-methylpropanoate], with 3 °C.
The value for `COC(C)=O` [methylacetate] was -13 °C; that for `C=CC(=O)OC` [methylacrylate] was -3 °C; that for `CCCCCC(=O)OC` [methylhexanoate] was 41 °C.
Molecule `CCCCCCCC(=O)OC` [methyloctanoate] yielded a flash point of 69 °C.
The value for `CCC(C)(C)OC` [methyltert-pentylether] was -7 °C.
Then `C1COCCN1` [morpholine], with 31 °C.
The value for `CC(C)(C)Cc1ccccc1` [neopentylbenzene] was 50 °C.
